Earlier results in paper PMC3991022, “Comparison of Functional Protein Transduction Domains Using the NEMO Binding Domain Peptide” (Pharmaceuticals, 2010).

Test system: mouse model of collagen induced arthritis
Set-up: method as in PMID 15156202
Conditions: injection of NBD peptide

TALDWSWLQTE [NBD peptide]
amelioration of arthritis: significantly ameliorated the arthritis
